In assay [1] the target is WEE1 (Homo sapiens, UniProt P30291). In words: LanthaScreen Eu Kinase Binding Assay, WEE1. In general terms: TR-FRET usually uses a lanthanide donor and a delayed reading to cut background.
Experimental: (§1) Binding of the tracer to the kinase is detected using a europium-labeled anti-GST antibody, which binds to the fused tag on the kinase protein. […] Inhibitor binding to the kinase competes with tracer binding, resulting in loss of FRET from the donor/acceptor pairs.
(§2) Kinase/Antibody Mixtures and Tracer are diluted to a 2× and 4× working concentration, respectively in this same buffer. […] 0% displacement (no known inhibitor) and 100% displacement (highest concentration of known inhibitor) controls were included on each plate for maximum and minimum Emission Ratio determination, respectively. Dasatinib was used for both PKMYT1 and WEE1 as the known inhibitor.
(§3) IC50 determination was performed using a non-linear regression, variable slope (four parameter), inhibitor v. response equation (Prism 9.0).
Assay [2] addresses T1, PKMYT1 (Homo sapiens, UniProt Q99640).
T1 sequence (Q99640 1-499): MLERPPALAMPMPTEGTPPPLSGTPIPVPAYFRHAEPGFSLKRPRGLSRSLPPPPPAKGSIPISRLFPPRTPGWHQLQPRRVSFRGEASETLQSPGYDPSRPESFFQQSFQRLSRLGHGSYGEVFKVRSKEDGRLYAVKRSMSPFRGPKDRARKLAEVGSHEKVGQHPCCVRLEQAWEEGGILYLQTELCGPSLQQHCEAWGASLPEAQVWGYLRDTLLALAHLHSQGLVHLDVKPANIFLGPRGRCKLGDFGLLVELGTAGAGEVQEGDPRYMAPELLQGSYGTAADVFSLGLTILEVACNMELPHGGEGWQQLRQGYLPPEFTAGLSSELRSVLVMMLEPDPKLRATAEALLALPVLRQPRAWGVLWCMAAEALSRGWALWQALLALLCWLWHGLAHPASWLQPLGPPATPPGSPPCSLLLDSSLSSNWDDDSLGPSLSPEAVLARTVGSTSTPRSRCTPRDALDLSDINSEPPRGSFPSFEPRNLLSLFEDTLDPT
In words: LanthaScreen Eu Kinase Binding Assay, PKMYT1.
Experimental: as §1, §2, §3

pIC50: −log10 of the molar value.

Among the data in US20260285859A1, “BI-CYCLIC PYRIMIDINE COMPOUNDS, METHODS AND USES THEREOF” (Zeno Management, Inc., priority 2023, published 2026) are IC50 values, retold here.

Sequence of WEE1 (P30291 whole entry): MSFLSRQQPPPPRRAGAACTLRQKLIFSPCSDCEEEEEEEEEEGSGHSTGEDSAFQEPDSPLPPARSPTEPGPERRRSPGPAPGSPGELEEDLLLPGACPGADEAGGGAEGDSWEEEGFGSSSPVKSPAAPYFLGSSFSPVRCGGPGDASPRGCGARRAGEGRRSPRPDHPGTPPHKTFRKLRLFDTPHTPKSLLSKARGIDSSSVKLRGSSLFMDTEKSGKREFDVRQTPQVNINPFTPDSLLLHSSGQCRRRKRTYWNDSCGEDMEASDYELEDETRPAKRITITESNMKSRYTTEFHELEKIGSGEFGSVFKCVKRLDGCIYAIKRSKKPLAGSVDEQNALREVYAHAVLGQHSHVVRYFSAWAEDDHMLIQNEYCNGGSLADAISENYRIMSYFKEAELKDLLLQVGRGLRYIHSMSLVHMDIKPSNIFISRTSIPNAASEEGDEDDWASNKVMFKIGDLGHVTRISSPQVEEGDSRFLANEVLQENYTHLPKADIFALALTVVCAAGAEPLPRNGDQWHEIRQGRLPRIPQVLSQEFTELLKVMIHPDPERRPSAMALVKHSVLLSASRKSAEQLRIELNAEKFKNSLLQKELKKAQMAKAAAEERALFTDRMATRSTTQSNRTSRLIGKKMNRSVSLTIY

As usually defined, the pIC50 is the negative decadic logarithm of the IC50, by convention in mol/L. A higher pIC50 goes with a small IC50. Turning to `Cc1ccc(O)c(C)c1-c1nc(C2=CCOCC2)cc2c(N)ncnc12` (single isomer, unassigned) [Compound 56-B], the pIC50 in assay [1] is 6.00 to 7.00; in assay [2] it was more than 8.00.

For `Cc1ccc(O)c(C)c1-c1nc(N=S(C)(C)=O)cc2c(N)ncnc12` (single isomer, unassigned) [Compound 8-B], the values for the negative logarithm of the IC50 (pIC50) in assay [1] and in assay [2] were less than 6.00 and 7.00 to 8.00, respectively.

In the case of `Cc1ccc(O)c(C)c1-c1nc(N2CC[C@](C)(O)C2)cc2c(N)ncnc12` (single isomer, unassigned) [Compound 13-E], the figures for the pIC50 in assay [1] and in assay [2] were less than 6.00 and 7.00 to 8.00, respectively.

`Cc1ccc(O)c(C)c1-c1nc(N(C)C2CCCC2)cc2c(N)ncnc12` (single isomer, unassigned) [Compound 44-B]: the pIC50 in assay [1] is 6.00 to 7.00; in assay [2], more than 8.00.

For the compound `Cc1ccc(O)c(C)c1-c1cc(N(C)C2CC2)nc2c(N)ncnc12` [Compound 75-B, (R)-3-(4-amino-6-(cyclopropyl(methyl)amino)pyrido[3,2-d]pyrimidin-8-yl)-2,4-dimethylphenol], the pIC50 was less than 6.00 in assay [1] and 7.00 to 8.00 in assay [2].

As to `[2H]C([2H])([2H])N(c1cc2c(N)ncnc2c(-c2c(C)ccc(O)c2C)n1)C1CC1` [Compound 60-B, (S)-3-(4-amino-6-(cyclopropyl(methyl-d3)amino)pyrido[3,4-d]pyrimidin-8-yl)-2,4-dimethylphenol], the values for the pIC50 in assay [1] and in assay [2] were 6.00 to 7.00 and more than 8.00, respectively.

Consider `Cc1ccc(O)c(C)c1-c1nc(N2CC[C@@](C)(F)C2)cc2c(N)ncnc12` (single isomer, unassigned) [Compound 54-B], for which the pIC50 is 6.00 to 7.00 in assay [1] and more than 8.00 in assay [2].

In the case of `Cc1ccc(O)c(C)c1-c1nc(N(C)CCC#N)cc2c(N)ncnc12` (single isomer, unassigned) [Compound 41-B], the pIC50 in assay [1] was less than 6.00; in assay [2], more than 8.00.

Take `Cc1cc(-c2c(C)ccc(O)c2C)c2ncnc(N)c2n1` [Compound 74-B, (R)-3-(4-amino-6-methylpyrido[3,2-d]pyrimidin-8-yl)-2,4-dimethylphenol]: the negative logarithm of the IC50 (pIC50) is less than 6.00 in assay [1] and 7.00 to 8.00 in assay [2].

Turning to `COC[C@@H]1CCN1c1cc2c(N)ncnc2c(-c2c(C)ccc(O)c2C)n1` (single isomer, unassigned) [Compound 24-B], the pIC50 in assay [1] was less than 6.00; in assay [2], 7.00 to 8.00.

In the case of `CCN(C)c1cc2c(N)ncnc2c(-c2c(C)ccc(O)c2C)n1` (single isomer, unassigned) [Compound 27-B], the pIC50 was less than 6.00 in assay [1] and more than 8.00 in assay [2].

With `CNc1cc2c(N)ncnc2c(-c2c(C)ccc(O)c2C)n1` (single isomer, unassigned) [Compound 1-B], the pIC50 is less than 6.00 in assay [1] and 7.00 to 8.00 in assay [2].

`Cc1ccc(O)c(C)c1-c1nc(N(C)CC2CC2)cc2c(N)ncnc12` (single isomer, unassigned) [Compound 30-B]: the pIC50 in assay [1] was less than 6.00; in assay [2], more than 8.00.

For `Cc1ccc(O)c(C)c1-c1cc(C2CC2)nc2c(N)ncnc12` [Compound 76-B, (R)-3-(4-amino-6-cyclopropylpyrido[3,2-d]pyrimidin-8-yl)-2,4-dimethylphenol], the negative-log IC50 (pIC50) is less than 6.00 in assay [1] and more than 8.00 in assay [2].

For the compound `Cc1ccc(O)c(C)c1-c1nc(N(C)c2cnn(C)c2)cc2c(N)ncnc12` (single isomer, unassigned) [Compound 46-B], the pIC50 in assay [1] was less than 6.00; in assay [2], more than 8.00.

On to `CO[C@H]1C[C@@H](N(C)c2cc3c(N)ncnc3c(-c3c(C)ccc(O)c3C)n2)C1` [Compound 62-B, 3-((S)-4-amino-6-(((1s,3R)-3-methoxycyclobutyl)(methyl)amino)pyrido[3,4-d]pyrimidin-8-yl)-2,4-dimethylphenol], for which the pIC50 in assay [1] is less than 6.00; in assay [2] it was more than 8.00.

Take `Cc1ccc(O)c(C)c1-c1nc(-c2ccncc2)cc2c(N)ncnc12` [Compound 32-B, (S)-3-(4-amino-6-(pyridin-4-yl)pyrido[3,4-d]pyrimidin-8-yl)-2,4-dimethylphenol]: the values for the pIC50 in assay [1] and in assay [2] were 6.00 to 7.00 and more than 8.00, respectively.

Take `Cc1ccc(O)c(C)c1-c1nc(C(C)C)cc2c(N)ncnc12` (single isomer, unassigned) [Compound 50-B]: the pIC50 was less than 6.00 in assay [1] and 7.00 to 8.00 in assay [2].

`Cc1ccc(O)c(C)c1-c1nc(C2CCC2)cc2c(N)ncnc12` (single isomer, unassigned) [Compound 40-B]: the values for the pIC50 in assay [1] and in assay [2] were less than 6.00 and more than 8.00, respectively.

Consider `COc1cc2c(N)ncnc2c(-c2c(C)ccc(O)c2C)n1` (single isomer, unassigned) [Compound 49-B], for which the pIC50 in assay [1] is less than 6.00; in assay [2], 7.00 to 8.00.

As for `Cc1ccc(O)c(C)c1-c1nc(N(C)CC(F)(F)F)cc2c(N)ncnc12` (single isomer, unassigned) [Compound 29-B], the pIC50 in assay [1] is less than 6.00; in assay [2] it was more than 8.00.

With `Cc1ccc(O)c(C)c1-c1nc(-c2cnn(C)c2)cc2c(N)ncnc12` (single isomer, unassigned) [Compound 19-B], the pIC50 in assay [1] is 6.00 to 7.00; in assay [2] it was more than 8.00.

Consider `Cc1ccc(O)c(C)c1-c1nc(N2CC(F)(F)C2)cc2c(N)ncnc12` (single isomer, unassigned) [Compound 5-B], for which the pIC50 in assay [1] is less than 6.00; in assay [2], 7.00 to 8.00.

Take `COC1CN(c2cc3c(N)ncnc3c(-c3c(C)ccc(O)c3C)n2)C1` (single isomer, unassigned) [Compound 26-B]: the pIC50 in assay [1] is less than 6.00; in assay [2], 7.00 to 8.00.

Consider `Cc1ccc(O)c(C)c1-c1nc(N2CCC(O)CC2)cc2c(N)ncnc12` (single isomer, unassigned) [Compound 11-B], for which the pIC50 in assay [1] is less than 6.00; in assay [2], more than 8.00.

With `Cc1ccc(O)c(C)c1-c1nc(N2CCC(F)(F)C2)cc2c(N)ncnc12` (single isomer, unassigned) [Compound 2-B], the pIC50 in assay [1] was 6.00 to 7.00; in assay [2] it was more than 8.00.

Turning to `COC[C@H]1CCN1c1cc2c(N)ncnc2c(-c2c(C)ccc(O)c2C)n1` (single isomer, unassigned) [Compound 25-B], the negative logarithm of the IC50 (pIC50) in assay [1] is less than 6.00; in assay [2], 7.00 to 8.00.

Regarding `Cc1ccc(O)c(C)c1-c1cc(NC2CC2)nc2c(N)ncnc12` [Compound 72-B, (R)-3-(4-amino-6-(cyclopropylamino)pyrido[3,2-d]pyrimidin-8-yl)-2,4-dimethylphenol], the values for the pIC50 in assay [1] and in assay [2] were less than 6.00 and more than 8.00, respectively.

As for `Cc1ccc(O)c(C)c1-c1nc(N(C)C(C)C)cc2c(N)ncnc12` (single isomer, unassigned) [Compound 12-B], the figures for the pIC50 in assay [1] and in assay [2] were less than 6.00 and more than 8.00, respectively.

With `Cc1ccc(O)c(C)c1-c1nc(N2CC[C@]3(CCO3)C2)cc2c(N)ncnc12` (single isomer, unassigned) [Compound 38-B], the pIC50 was less than 6.00 in assay [1] and more than 8.00 in assay [2].

Compound `Cc1ccc(O)c(C)c1-c1nc(C(F)(F)F)cc2c(N)ncnc12` (single isomer, unassigned) [Compound 39-B] showed a pIC50 in assay [2] of 7.00 to 8.00.

In assay [1], `Cc1cc2c(C(N)=O)c(N)n(-c3c(C)ccc(O)c3C)c2nc1C` [RP-6306, Lunresertib, reference compound] showed a pIC50 of 7.00 to 8.00.
